Data taken from patent US9211310B2, “Use of a Chinese medicine composition in preparing medicaments for treating secondary prevention of myocardial infarction” (TASLY PHARMACEUTICAL GROUP CO., LTD, priority 2010, dated 2015).

Test system: patients after acute myocardial infarction
Assay: Life quality, Seattle Angina Questionnaire (SAQ), same clinical trial
Type: in vivo, human
Description: 3508 patients who were in accordance with the diagnostic standards of AMI for 28 days to 2 years and differentiated as Qi deficiency and blood stagnation syndrome by TCM were studied. 0.5 g Chinese medicine composition prepared by the method of EXAMPLE 1 (Coded as QSYQ) was administrated half an hour after meal, 3 times per day.
There were 19 questions in the Seattle angina questionnaire (SAQ), including 5 parts: physical limitation (PL), anginal stability (AS), anginal frequency (AF), treatment satisfaction (TS) and disease perception (DP). After being given necessary explanation by doctors, the questions were answered independently by patients.
They included the overall survival time, angina pectoris score, TCM symptom score and life quality score, where angina pectoris score, TCM symptom score and life quality score were evaluated at randomization, in 1st, 3rd, 6th, 9th, 12th month after treatment and 18th month after follow-up.
All evaluation results of SAQ were described during the period of observation, and Wilcoxon rank sum test was used for inter-group comparison.
The evaluation results in the SAQ were depicted in different observations, and inter-group comparison was tested by Wilcoxon Rank-sum test.

## CC(=O)Oc1ccccc1C(=O)O [Control group, aspirine]
6 months after treatment, PP
  SAQ Question 1-3: Slightly limited, percent of patients: (15.66%)
  SAQ Question 1-4: Mildly limited, number of patients: 266
  SAQ Question 1-4: Mildly limited, percent of patients: (18.37%)
  SAQ Question 1-4: Moderately limited, number of patients: 74
  SAQ Question 1-4: Moderately limited, percent of patients: (5.11%)
  SAQ Question 1-4: Not limited, number of patients: 613
  SAQ Question 1-4: Not limited, percent of patients: (42.33%)
  SAQ Question 1-4: Other reasons, number of patients: 12
  SAQ Question 1-4: Other reasons, percent of patients: (0.83%)
  SAQ Question 1-4: Severely limited, number of patients: 20
  SAQ Question 1-4: Severely limited, percent of patients: (1.38%)
  SAQ Question 1-4: Slightly limited, number of patients: 463
  SAQ Question 1-4: Slightly limited, percent of patients: (31.98%)
  SAQ Question 1-5: Mildly limited, number of patients: 244
  SAQ Question 1-5: Mildly limited, percent of patients: (16.86%)
  SAQ Question 1-5: Moderately limited, number of patients: 109
  SAQ Question 1-5: Moderately limited, percent of patients: (7.53%)
  SAQ Question 1-5: Not limited, number of patients: 637
  SAQ Question 1-5: Not limited, percent of patients: (44.02%)
  SAQ Question 1-5: Other reasons, number of patients: 12
  SAQ Question 1-5: Other reasons, percent of patients: (0.83%)
  SAQ Question 1-5: Severely limited, number of patients: 12
  SAQ Question 1-5: Severely limited, percent of patients: (0.83%)
  SAQ Question 1-5: Slightly limited, number of patients: 433
  SAQ Question 1-5: Slightly limited, percent of patients: (29.92%)
  SAQ Question 1-9: Mildly limited, % of cases: (20.47%)
  SAQ Question 1-9: Mildly limited, cases: 289
  SAQ Question 1-9: Moderately limited, % of cases: (21.60%)
  SAQ Question 1-9: Moderately limited, cases: 305
  SAQ Question 1-9: Not limited, % of cases: (3.54%)
  SAQ Question 1-9: Not limited, cases: 50
  SAQ Question 1-9: Other limited, % of cases: (6.37%)
  SAQ Question 1-9: Other limited, cases: 90
  SAQ Question 1-9: Severely limited, % of cases: (34.70%)
  SAQ Question 1-9: Severely limited, cases: 490
  SAQ Question 1-9: Slightly limited, % of cases: (13.31%)
  SAQ Question 1-9: Slightly limited, cases: 188
9 months after treatment, FAS
  SAQ 2nd question: 6, % of cases: (0.00%)
  SAQ 2nd question: 6, cases: 0
  SAQ 2nd question: Clearly increased, % of cases: (1.44%)
  SAQ 2nd question: Clearly increased, cases: 25
  SAQ 2nd question: Clearly reduced, % of cases: (24.17%)
  SAQ 2nd question: Clearly reduced, cases: 421
  SAQ 2nd question: Same, % of cases: (35.94%)
  SAQ 2nd question: Same, cases: 626
  SAQ 2nd question: Slightly increased, % of cases: (3.96%)
  SAQ 2nd question: Slightly increased, cases: 69
  SAQ 2nd question: Slightly reduced, % of cases: (34.50%)
  SAQ 2nd question: Slightly reduced, cases: 601
  SAQ 3rd question: 1-2 times per week, % of cases: (34.50%)
  SAQ 3rd question: 1-2 times per week, cases: 601
  SAQ 3rd question: 1-3 times per day, % of cases: (3.96%)
  SAQ 3rd question: 1-3 times per day, cases: 69
  SAQ 3rd question: <1 time per week, % of cases: (24.17%)
  SAQ 3rd question: <1 time per week, cases: 421
  SAQ 3rd question: No onset, % of cases: (0.00%)
  SAQ 3rd question: No onset, cases: 0
  SAQ 3rd question: ≧3 times per week, % of cases: (35.94%)
  SAQ 3rd question: ≧3 times per week, cases: 626
  SAQ 3rd question: ≧4 times per day, % of cases: (1.44%)
  SAQ 3rd question: ≧4 times per day, cases: 25
  SAQ Question 1-3: Mildly limited, number of patients: 58
  SAQ Question 1-3: Mildly limited, percent of patients: (3.33%)
  SAQ Question 1-3: Moderately limited, number of patients: 17
  SAQ Question 1-3: Moderately limited, percent of patients: (0.97%)
  SAQ Question 1-3: Not limited, number of patients: 1421
  SAQ Question 1-3: Not limited, percent of patients: (81.48%)
  SAQ Question 1-3: Other reasons, number of patients: 8
  SAQ Question 1-3: Other reasons, percent of patients: (0.46%)
  SAQ Question 1-3: Severely limited, number of patients: 2
  SAQ Question 1-3: Severely limited, percent of patients: (0.11%)
  SAQ Question 1-3: Slightly limited, number of patients: 238
  SAQ Question 1-3: Slightly limited, percent of patients: (13.65%)
  SAQ Question 1-4: Mildly limited, number of patients: 264
  SAQ Question 1-4: Mildly limited, percent of patients: (15.14%)
  SAQ Question 1-4: Moderately limited, number of patients: 85
  SAQ Question 1-4: Moderately limited, percent of patients: (4.87%)
